Measurements as given in US20130280260A1, “OSTEOCLASTOGENESIS INHIBITOR CONTAINING ANTI-VDAC ANTIBODY” (TOKYO WOMEN'S MEDICAL UNIVERSITY, priority 2010, published 2013).

Tests used:
human osteoclasts = assay: Inhibition of osteoclast differentiation and osteoclastogenesis in human osteoclastogenesis culture system (monocytes with M-CSF and RANKL); assay type: cell-based; conditions: 0.2 μg/mL or 2 μg/mL, in comparison with the control
Procedure: • (1) Preparation of Monoclonal Antibodies against Cell Membrane Proteins of Osteoclasts • (i) Peripheral blood monocytes from five healthy subjects were cultured in flasks in the presence of M-CSF and RANKL for approximately 2 weeks and differentiated into osteoclasts. After trypsin and EDTA were added to the human osteoclasts, the resulting cells were cultured at 37° C. for 15 minutes, and then detached with a cell scraper and harvested. This operation was repeated to collect cell membranes of human mature osteoclasts. Membrane proteins were prepared from the human mature osteoclasts using a RIPA buffer. • (ii) Using the obtained membrane proteins as an antigen, mice were immunized. Spleen cells of the mice thus immunized were fused with myeloma cells, and four types of hybridomas were obtained. Screening was performed by ELISA using a plate on which the osteoclast membrane proteins were immobilized. The wells of the positive result were further examined for a reactivity to human osteoclasts and a nonspecific reactivity to monocytes. After cloning, 5D1/2B9/2H10 and 5D1/3F3/2C8 were obtained as final lines. • (iii) From these final lines, monoclonal antibodies were obtained. • (2) Purification of Proteins Bound to Antibody Column
• (1) Into the human osteoclastogenesis culture system obtained in step 1. […]

[1] = system: monoclonal antibody 20B12 (anti-VDAC1); assay: Epitope analysis by ELISA using synthetic peptides covering VDAC1; assay type: binding, mouse; conditions: for OD450-595: 20B12 at 5 μg/mL, average of two wells; for reaction between peptide and antibody (ELISA): text summary of Tables 2, 3
Procedure: In order to examine an epitope for the anti-VDCA monoclonal antibody (VDAC1(20B12), SANTA CRUZ Biotechnology, Inc., sc-58649, mouse monoclonal IgG2b, 100 μg/ml), an analysis was conducted by ELISA using synthetic peptides (Table 1). As the synthetic peptides, 28 types of peptides were prepared so as to cover the VDAC1 completely.
The synthetic peptides were fixed to plates by an avidin-biotin method as follows.
The synthetic peptides (325 nmol/peptide) were each dissolved in 250 μL of DMSO, and then diluted 6400-fold with Wash Buffer (PBS containing 0.05% Tween-20). After a streptavidin-coated plate was washed with Wash Buffer (350 μL, 3 times), 100 μL of the peptide thus diluted was added into the plate, which was left standing in cold storage overnight.
ELISA was performed using the plate to which the peptide was fixed in 7.1, and antibodies bound to the peptide were detected. The detection procedure was as follows. Two wells were used for one condition, and the average was taken. • (1) The liquid in wells was taken out. After washing with Wash Buffer (350 μL, three times), 200 μL of Blocking Buffer (SynBlock) was added to the wells, which were shaken at 37° C. for 1 hour. • (2) The liquid in the wells was taken out, and 50 μL of the monoclonal antibody 20B12 (diluted to 5 μg/mL with Blocking Buffer) was added to the wells, which were shaken at 37° C. for 1 hour. • (3) The liquid in the wells was taken out. After washing with Wash Buffer, 50 μL of HRP-labeled Goat anti Mouse IgG (Fc) (the original solution had been diluted 25000-fold with Wash Buffer) was added to the wells, which were shaken at 37° C. for 1 hour. • (4) The liquid in the wells was taken out, and the plate was washed. Then, 60 μL of a staining solution was added to the plate, which was incubated at 37° C. for 30 minutes. After 60 μL of a stop solution was added thereto to stop the color reaction, the absorbance at 450 nm (Reference 595 nm) was measured with a plate reader.

## NCCCC(O)(P(=O)(O)O)P(=O)(O)O [alendronate sodium hydrate]
Human osteoclasts
  osteoclastogenesis (total area of osteoclasts): significantly inhibited

## ACFSAKVNNS SLIGLGYTQT (ACFSAKVNNSSLIGLGYTQT) [Peptide 24, synthetic peptide covering part of VDAC1]
[1]; first time
  OD450-595: 1.284
[1]; second time
  OD450-595: 1.336
[1]
  reaction between peptide and antibody (ELISA): significant

## AGYQMNFETA KSRVTQSNFA (AGYQMNFETAKSRVTQSNFA) [Peptide 16, synthetic peptide covering part of VDAC1]
[1]; first time
  OD450-595: 0.388
[1]; second time
  OD450-595: 0.444

## ALLDGKNVNA GGHKLGLGLE (ALLDGKNVNAGGHKLGLGLE) [Peptide 27, synthetic peptide covering part of VDAC1]
[1]; first time
  OD450-595: 0.290
[1]; second time
  OD450-595: 0.371

## ALVLGYEGWL AGYQMNFETA (ALVLGYEGWLAGYQMNFETA) [Peptide 15, synthetic peptide covering part of VDAC1]
[1]; first time
  OD450-595: 0.337
[1]; second time
  OD450-595: 0.373

## EHINLGCDMD FDIAGPSIRG (EHINLGCDMDFDIAGPSIRG) [Peptide 13, synthetic peptide covering part of VDAC1]
[1]; first time
  OD450-595: 0.369
[1]; second time
  OD450-595: 0.322

## FDIAGPSIRG ALVLGYEGWL (FDIAGPSIRGALVLGYEGWL) [Peptide 14, synthetic peptide covering part of VDAC1]
[1]; first time
  OD450-595: 0.316
[1]; second time
  OD450-595: 0.385

## FTEKWNTDNT LGTEITVEDQ (FTEKWNTDNTLGTEITVEDQ) [Peptide 8, synthetic peptide covering part of VDAC1]
[1]; first time
  OD450-595: 0.341
[1]; second time
  OD450-595: 0.411

## FTSSGSANTE TTKVTGSLET (FTSSGSANTETTKVTGSLET) [Peptide 5, synthetic peptide covering part of VDAC1]
[1]; first time
  OD450-595: 0.311
[1]; second time
  OD450-595: 0.351

## GGHKLGLGLE FQA (GGHKLGLGLEFQA) [Peptide 28, synthetic peptide covering part of VDAC1]
[1]; first time
  OD450-595: 0.418
[1]; second time
  OD450-595: 0.455

## GGSIYQKVNK KLETAVNLAW (GGSIYQKVNKKLETAVNLAW) [Peptide 20, synthetic peptide covering part of VDAC1]
[1]; first time
  OD450-595: 0.362
[1]; second time
  OD450-595: 0.398

## GKSARDVFTK GYGFGLIKLD (GKSARDVFTKGYGFGLIKLD) [Peptide 2, synthetic peptide covering part of VDAC1]
[1]; first time
  OD450-595: 0.363
[1]; second time
  OD450-595: 0.421

## GYGFGLIKLD LKTKSENGLE (GYGFGLIKLDLKTKSENGLE) [Peptide 3, synthetic peptide covering part of VDAC1]
[1]; first time
  OD450-595: 0.280
[1]; second time
  OD450-595: 0.354

## HTNVNDGTEF GGSIYQKVNK (HTNVNDGTEFGGSIYQKVNK) [Peptide 19, synthetic peptide covering part of VDAC1]
[1]; first time
  OD450-595: 0.300
[1]; second time
  OD450-595: 0.312

## IAAKYQIDPD ACFSAKVNNS (IAAKYQIDPDACFSAKVNNS) [Peptide 23, synthetic peptide covering part of VDAC1]
[1]; first time
  OD450-595: 0.276
[1]; second time
  OD450-595: 0.357

## KLETAVNLAW TAGNSNTRFG (KLETAVNLAWTAGNSNTRFG) [Peptide 21, synthetic peptide covering part of VDAC1]
[1]; first time
  OD450-595: 0.235
[1]; second time
  OD450-595: 0.270

## KSRVTQSNFA VGYKTDEFQL (KSRVTQSNFAVGYKTDEFQL) [Peptide 17, synthetic peptide covering part of VDAC1]
[1]; first time
  OD450-595: 0.285
[1]; second time
  OD450-595: 0.308

## KYRWTEYGLT FTEKWNTDNT (KYRWTEYGLTFTEKWNTDNT) [Peptide 7, synthetic peptide covering part of VDAC1]
[1]; first time
  OD450-595: 0.321
[1]; second time
  OD450-595: 0.371

## LARGLKLTFD SSFSPNTGKK (LARGLKLTFDSSFSPNTGKK) [Peptide 10, synthetic peptide covering part of VDAC1]
[1]; first time
  OD450-595: 0.360
[1]; second time
  OD450-595: 0.351

## LGTEITVEDQ LARGLKLTFD (LGTEITVEDQLARGLKLTFD) [Peptide 9, synthetic peptide covering part of VDAC1]
[1]; first time
  OD450-595: 0.286
[1]; second time
  OD450-595: 0.338

## LKPGIKLTLS ALLDGKNVNA (LKPGIKLTLSALLDGKNVNA) [Peptide 26, synthetic peptide covering part of VDAC1]
[1]; first time
  OD450-595: 0.268
[1]; second time
  OD450-595: 0.367

## LKTKSENGLE FTSSGSANTE (LKTKSENGLEFTSSGSANTE) [Peptide 4, synthetic peptide covering part of VDAC1]
[1]; first time
  OD450-595: 0.312
[1]; second time
  OD450-595: 0.423

## MAVPPTYADL GKSARDVFTK (MAVPPTYADLGKSARDVFTK) [Peptide 1, synthetic peptide covering part of VDAC1]
[1]; first time
  OD450-595: 0.448
[1]; second time
  OD450-595: 0.443

## NAKIKTGYKR EHINLGCDMD (NAKIKTGYKREHINLGCDMD) [Peptide 12, synthetic peptide covering part of VDAC1]
[1]; first time
  OD450-595: 0.345
[1]; second time
  OD450-595: 0.375

## SLIGLGYTQT LKPGIKLTLS (SLIGLGYTQTLKPGIKLTLS) [Peptide 25, synthetic peptide covering part of VDAC1]
[1]; first time
  OD450-595: 0.590
[1]; second time
  OD450-595: 0.679
[1]
  reaction between peptide and antibody (ELISA): weak reaction

## SSFSPNTGKK NAKIKTGYKR (SSFSPNTGKKNAKIKTGYKR) [Peptide 11, synthetic peptide covering part of VDAC1]
[1]; first time
  OD450-595: 0.319
[1]; second time
  OD450-595: 0.361

## TAGNSNTRFG IAAKYQIDPD (TAGNSNTRFGIAAKYQIDPD) [Peptide 22, synthetic peptide covering part of VDAC1]
[1]; first time
  OD450-595: 0.318
[1]; second time
  OD450-595: 0.319

## TTKVTGSLET KYRWTEYGLT (TTKVTGSLETKYRWTEYGLT) [Peptide 6, synthetic peptide covering part of VDAC1]
[1]; first time
  OD450-595: 0.358
[1]; second time
  OD450-595: 0.363

## VGYKTDEFQL HTNVNDGTEF (VGYKTDEFQLHTNVNDGTEF) [Peptide 18, synthetic peptide covering part of VDAC1]
[1]; first time
  OD450-595: 0.275
[1]; second time
  OD450-595: 0.305
